The structures appear in SMILES notation.

The target of one experiment is D(2) dopamine receptor (Homo sapiens, UniProt P14416). Description: Displacement of [3H]-(R)-(+)7-OH-DPAT from human dopamine D2 receptor expressed in HEK293 cell membranes incubated for 90 mins by microbeta scintillation counting analysis. On the set-up: species or system Cell membrane. (In a radioligand displacement assay an active substance lowers the binding of a labelled ligand.)

Experiment [1] is filed under the species Homo sapiens. Kind of experiment: Selectivity ratio of Ki for displacement of [3H]-(R)-(+)7-OH-DPAT from human dopamine D3 receptor expressed in HEK293 cell membranes to Ki for displacement of [3H]-(R)-(+)7-OH-DPAT from human dopamine D2 receptor expressed in HEK293 cell membranes.
A further experiment deals with D(3) dopamine receptor (Homo sapiens, UniProt P35462). Description: Displacement of [3H]-(R)-(+)7-OH-DPAT from human dopamine D3 receptor expressed in HEK293 cell membranes incubated for 90 mins by microbeta scintillation counting analysis. On the set-up: species or system Cell membrane.
The subject of a further experiment is HEK293. Kind of experiment: Selectivity ratio of Ki for displacement of [3H]-(R)-(+)7-OH-DPAT from human dopamine D2 receptor expressed in HEK293 cell membranes to Ki for displacement of [3H]-(R)-(+)7-OH-DPAT from human dopamine D3 receptor expressed in HEK293 cell membranes. The conditions noted are these: Cell membrane.
The species named for experiment [2] is Homo sapiens. Kind of experiment: Selectivity ratio of Ki for displacement of [3H]-N-methylspiperone from human dopamine D2 receptor expressed in HEK293 cell membranes to Ki for displacement of [3H]-N-methylspiperone from human dopamine D3 receptor expressed in HEK293 cell membranes.

Chain of D(3) dopamine receptor (P35462 whole entry): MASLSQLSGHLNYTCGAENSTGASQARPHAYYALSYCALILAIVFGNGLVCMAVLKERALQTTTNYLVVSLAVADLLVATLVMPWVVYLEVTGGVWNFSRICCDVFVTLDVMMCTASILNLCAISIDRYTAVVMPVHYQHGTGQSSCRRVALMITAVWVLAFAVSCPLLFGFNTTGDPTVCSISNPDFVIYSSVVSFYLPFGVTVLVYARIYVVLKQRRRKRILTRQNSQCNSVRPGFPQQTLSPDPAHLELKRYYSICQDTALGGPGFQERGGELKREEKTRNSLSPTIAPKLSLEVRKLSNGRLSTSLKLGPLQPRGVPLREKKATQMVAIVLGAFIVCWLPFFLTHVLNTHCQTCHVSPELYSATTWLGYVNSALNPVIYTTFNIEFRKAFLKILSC
Chain of D(2) dopamine receptor (P14416 whole entry): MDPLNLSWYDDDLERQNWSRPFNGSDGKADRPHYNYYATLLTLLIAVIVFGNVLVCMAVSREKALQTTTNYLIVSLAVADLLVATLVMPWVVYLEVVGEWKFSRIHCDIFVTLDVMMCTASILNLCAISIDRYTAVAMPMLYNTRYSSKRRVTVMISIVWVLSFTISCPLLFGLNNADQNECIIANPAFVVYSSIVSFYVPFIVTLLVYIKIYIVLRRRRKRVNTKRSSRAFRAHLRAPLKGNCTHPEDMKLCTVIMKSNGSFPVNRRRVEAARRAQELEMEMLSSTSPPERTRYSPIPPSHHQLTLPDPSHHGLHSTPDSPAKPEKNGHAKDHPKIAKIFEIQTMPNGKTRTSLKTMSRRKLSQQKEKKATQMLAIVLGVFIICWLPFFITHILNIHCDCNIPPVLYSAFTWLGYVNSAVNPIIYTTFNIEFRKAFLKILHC

Usually Ki stands for the equilibrium dissociation constant of an inhibitor or competing ligand from its target. Low readings indicate tighter binding, high ones weaker binding. Regarding `CN(C[C@@H]1C[C@H]1CCNC(=O)c1cc2ccccc2[nH]1)[C@@H]1Cc2cccc3[nH]c(=O)n(c23)C1`, the Ki stood at 9.56 nM at D(2) dopamine receptor and 106 nM at D(3) dopamine receptor. In the experiment listed under Homo sapiens [1], the Ratio Ki stood at 11.

As to `CN(CC[C@@H]1CC[C@@H](CNC(=O)c2cc3ccccc3[nH]2)C1)[C@@H]1Cc2cccc3[nH]c(=O)n(c23)C1` (relative stereo), the Ratio Ki in the experiment filed under Homo sapiens [1] came out at 17.

Regarding `CN[C@@H]1Cc2cccc3[nH]c(=O)n(c23)C1` [SUMANIROLE], the affinity at D(3) dopamine receptor corresponds to a Ki of 784 nM.

As to `C[C@H]1CO[C@@H](c2ccc(N)nc2)CN1C/C=C1\CCC(CNC(=O)c2cc3ccccc3[nH]2)C1` (mixture of isomers), the Ratio Ki in the experiment on HEK293 amounted to 7.5; in the experiment filed under Homo sapiens [2] it was 76.

Turning to `C[C@H]1CO[C@@H](c2ccc(N)nc2)CN1CCn1cc(CNC(=O)c2cc3ccccc3[nH]2)nn1`, the figures for the Ki at D(2) dopamine receptor and at D(3) dopamine receptor were 13500 nM and 6860 nM, respectively. Further, the values for the Ratio Ki in the experiment with HEK293 and in the experiment filed under Homo sapiens [2] were 2 and 12, respectively.

For `CN(C[C@H]1C[C@@H]1CCNC(=O)c1cc2ccccc2[nH]1)[C@@H]1Cc2cccc3[nH]c(=O)n(c23)C1`, the Ki on D(2) dopamine receptor is 49.1 nM; at D(3) dopamine receptor, 22.1 nM. Also, the Ratio Ki in the experiment with HEK293 was found to be 2.2.

In the case of `CN(CC[C@@H]1CC[C@H](CNC(=O)c2cc3ccccc3[nH]2)C1)[C@@H]1Cc2cccc3[nH]c(=O)n(c23)C1` (relative stereo), the Ratio Ki in the experiment filed under Homo sapiens [1] was 9.6.

Turning to `C[C@H]1CO[C@@H](c2ccc(N)nc2)CN1CC(=O)N1CCC(CNC(=O)c2cc3ccccc3[nH]2)C1` (some centres undefined), the Ki was 1870 nM on D(2) dopamine receptor and 1380 nM on D(3) dopamine receptor. The Ratio Ki turned out to be 1.4 in the experiment on HEK293 and 3.3 in the experiment filed under Homo sapiens [2].

Values taken from ChEMBL document CHEMBL5226346, “Chiral Cyclic Aliphatic Linkers as Building Blocks for Selective Dopamine D2 or D3 Receptor Agonists” (J Med Chem, 2021).
